According to US9932339B2, “Helquats with heteroaromatic substituents, preparation thereof, and use thereof as G-quadruplex stabilizers” (USTAV ORGANICKE CHEMIE A BIOCHEMIE AV CR, V.V.I., priority 2014, dated 2018):
Read-outs that look alike come from different tables or passages of the source.

How the values were obtained:
CCRF-CEM = test: XTT cytotoxicity/proliferation assay, CCRF-CEM; assay type: cell-based; conditions: Homo sapiens, CCRF-CEM
Method: To assess the antiproliferative effects of the tested substances in vitro, tumor cell line CCRF-CEM derived from acute lymphoblastic leukemia and normal (healthy) HUVEC endothelial cells from umbilical vein were used. Both of these cell lines were cultured under optimal conditions for their growth in the appropriate medium in plastic bottles or plastic Petri dishes of various sizes (TPP, BD Biosciences) at 37° C., 5% CO2 and 95% humidity. HUVEC cells were purchased from BD Biosciences. CCRF-CEM cell line was obtained from ATCC/LGC Standards (American Type Cell Collection).
Suspension cell line CCRF-CEM is a continuous in vitro culture of acute lymphoblastic leukemia. Cell line CCRF-CEM was grown in RPMI 1640 medium (Sigma-Aldrich, cat. No. R8758) supplemented with 2 mmol·l^−1 glutamine (Invitrogen, cat. No. 35050-038), 10% fetal bovine serum (FBS; Sigma-Aldrich, cat. No. F9665), 100 IU/ml penicillin, 100 μg/ml streptomycin (Sigma-Aldrich, cat. No. P0781). Passaging was carried out 2-3 times a week. Population doubling time of CCRF-CEM cells under the used culture conditions is 20 hours.
For testing of the sensitivity of cell lines to studied helquats XTT cytotoxicity/proliferation assay for determination of cell viability was used. This method is based on the ability of metabolically active cells to reduce the yellow tetrazolium salt XTT to orange formazan. The rate of conversion is measured as the increase in absorbance at 492 nm and is proportional to the enzymatic activity of mitochondrial dehydrogenases and thus the number of metabolically active (viable) cells. The output is the IC50 value corresponding to the concentration of the test substance that causes a decrease in the number of viable cells by half (i.e. 50% slowdown of cell division) relative to the control, untreated population. Thus it reflects the effectiveness of the test substance towards the tested cell line.
Cells in exponential growth phase were plated into 96-well microtiter plate at a concentration of 3000 cells per well. Each well contained 90 μl of cell suspension. The following day, 10 μl of 10× concentrated test substances was added. Effect of helquats has been studied in the concentration range 1-100 μmol·l^−1 (or 1, 2.5, 5, 7.5, 10; 15; 25; 50 and 100 μmol·l^−1). In addition to the part of the plate containing the mentioned dilutions of test compounds there were always two control columns present, first column with medium alone (i.e. blank) and the second column with the cells in medium without test compounds (control). Into the blank and control wells the same volume of solvent (water) as the volume of the substances was added. After 72 hours of treatment with substances the measurement of viability was performed according to the manufacturer instructions. Briefly, into each well of a 96-well microtiter plate 50 μl of the prepared working solution of XTT (detection reagent) was added and then the microtiter plate was returned to the CO2 incubator. After 2 hours, the absorbance of each well at 492 nm (reference wavelength 690 nm) was measured using a multifunctional microplate reader (Tecan Genios, Austria).
The results of determination of the viability of cancer and normal cells after treatment with different concentrations of test substances are summarized in Table 9. […] Each concentration of a helquat was tested in triplicates within one IC50 value determination. Each of these IC50 value determinations was repeated in at least three independent experiments. Values above 100 μmol·l^−1 were obtained by extrapolation of data measured in the concentration range 0-100 μmol·l^−1 of helquats.

c-myc protein = test: Immunodetection of protein c-myc in HGC-27 cell lysates (Western blot); assay type: cell-based, human; conditions: 50 μmol · l^−1, 24 hour incubation, normalized to β-actin
Method: Determination of changes in c-myc protein expression (transcription factor) in cell lysates prepared from tumor cell line HGC-27 after treatment with test helquats (Tab. 7) was carried out by immunodetection after separation of proteins according to their size by gel electrophoresis (SDS-PAGE) and blotting.
To determine the influence helquats on expression of c-myc protein, the cells were cultured under standard conditions and in the exponential growth phase were seeded into flasks at a density of 25,000 cells/cm^2. The next day selected helquats were added at a concentration of 50 μmol·l^−1. After 24 hour incubation, the cell pellets were obtained and, after addition of RIPA buffer with protease inhibitors (PrIC) and phosphatases (PhIC) (for composition see Tab. 8) cell lysates were prepared. 150 μl of RIPA buffer was used for 10^7 cells. Protein concentrations in the lysates were measured by BCA method. Separation of proteins in the lysates was carried out on a 12% denaturing polyacrylamide gel. The separated proteins were transferred to PVDF membrane by Western blotting.
Incubation with primary mouse monoclonal antibody against the protein c-myc (dilution 1:1000 in “SignalBoost” reagent) was carried out overnight at 4° C., and then with the primary mouse anti-β-actin (1:5000 dilution in 5% milk in TBS-T buffer) at room temperature for 2 hours. Subsequently, the secondary horse monoclonal antibody conjugated to horseradish peroxidase (diluted 1:2000 in 5% milk in TBS-T buffer) binding to mouse IgG antibody was applied. C-myc proteins and β-actin bound to the membrane were visualized using detection kit (SuperSignal® West Femto Maximum Sensitivity Substrate, Cat. No. 34095, Thermo Fisher Scientific, Inc., USA) in the chemiluminescence detection system ImageQuant LAS 4000 Mini (Cat. No. 28-9558-13, GE Healthcare Life Sciences, USA). The amount of protein was quantified by densitometry in Quantity One software. The amount of c-myc in the samples was normalized to β-actin, and subsequently related to a control sample.

HUVEC = test: XTT cytotoxicity/proliferation assay, HUVEC; assay type: cell-based, human; conditions: Homo sapiens, HUVEC
Method: To assess the antiproliferative effects of the tested substances in vitro, tumor cell line CCRF-CEM derived from acute lymphoblastic leukemia and normal (healthy) HUVEC endothelial cells from umbilical vein were used. Both of these cell lines were cultured under optimal conditions for their growth in the appropriate medium in plastic bottles or plastic Petri dishes of various sizes (TPP, BD Biosciences) at 37° C., 5% CO2 and 95% humidity. HUVEC cells were purchased from BD Biosciences. CCRF-CEM cell line was obtained from ATCC/LGC Standards (American Type Cell Collection). Normal human endothelial cells from the umbilical vein are adherent cells, which were grown in plastic Petri dishes coated with collagen I. The culture medium (E-STIMTM; BD Biosciences, cat. […] Then, 5 ml of complete culture media E-STIM™ was added and the cells were centrifuged (180×g, 7 minutes), resuspended and transferred in a desired amount in a new Petri dish with fresh medium. In the experiments cells between passages 3 and 8 (after thawing) were used. Population doubling time of HUVEC cells under the used culture conditions is 38 hours. For testing of the sensitivity of cell lines to studied helquats XTT cytotoxicity/proliferation assay for determination of cell viability was used. This method is based on the ability of metabolically active cells to reduce the yellow tetrazolium salt XTT to orange formazan. The rate of conversion is measured as the increase in absorbance at 492 nm and is proportional to the enzymatic activity of mitochondrial dehydrogenases and thus the number of metabolically active (viable) cells. […] Thus it reflects the effectiveness of the test substance towards the tested cell line. Cells in exponential growth phase were plated into 96-well microtiter plate at a concentration of 3000 cells per well. Each well contained 90 μl of cell suspension. The following day, 10 μl of 10× concentrated test substances was added. […] In addition to the part of the plate containing the mentioned dilutions of test compounds there were always two control columns present, first column with medium alone (i.e. blank) and the second column with the cells in medium without test compounds (control). Into the blank and control wells the same volume of solvent (water) as the volume of the substances was added. After 72 hours of treatment with substances the measurement of viability was performed according to the manufacturer instructions. Briefly, into each well of a 96-well microtiter plate 50 μl of the prepared working solution of XTT (detection reagent) was added and then the microtiter plate was returned to the CO2 incubator. After 2 hours, the absorbance of each well at 492 nm (reference wavelength 690 nm) was measured using a multifunctional microplate reader (Tecan Genios, Austria).

[1] = 72 hours of treatment, read-out: IC50 CCRF CEM
[2] = 72 hours of treatment, values above 100 μmol·l^−1 obtained by extrapolation, read-out: IC50 HUVEC

Row | SMILES | IC50 (CCRF-CEM; [1]) [µM] | IC50 (CCRF-CEM; 72 hours, summary of table 9, read-out: concentrations toxic towards CCRF-CEM cells) [µM] | c-myc protein expression relative to control (control = 100%) (c-myc protein) [%] | IC50 (HUVEC; [2]) [µM] | IC50 (HUVEC; 72 hours, summary of table 9, read-out: concentrations non-toxic towards HUVEC cells) [µM]
1 | C(=C\c1cc2ccccc2[n+]2c1-c1c(ccc3c1-c1cccc[n+]1CCC3)CCC2)/c1ccc(-c2cccs2)s1.O=S(=O)([O-])C(F)(F)F.O=S(=O)([O-])C(F)(F)F [MSC-C9-16, 19-((E)-2-([2,2′-bithiophen]-5-yl)vinyl)-6,7,8,11,12,13-hexahydropyrido[1′″,2′″:1″,2″]azepino[4″,3″:5′,6′]benzo[1′,2′:3,4]azepino[1,2-a]quinoline-5,14-diium trifluoromethanesulfonate] | ≤ 10 | < 25 | 36 | ≥ 100 | > 100
2 | C(=C\c1ccc(-c2cccs2)s1)/c1cc(/C=C/c2ccc(-c3cccs3)s2)[n+]2c(c1)-c1c(ccc3c1-c1cccc[n+]1CC3)CC2.O=S(=O)([O-])C(F)(F)F.O=S(=O)([O-])C(F)(F)F [HTA-C9-16, 2,4-bis((E)-2-([2,2′-bithiophen]-5-yl)vinyl)-6,7,10,11-tetrahydrodipyrido[2,1-a:1′,2′-k][2,9]phenanthroline-5,12-diium trifluoromethanesulfonate] | 11 to 25 |  | 32 | 26 to 50 | 
3 | C(=C\c1cc2ccccc2o1)/c1cc(/C=C/c2cc3ccccc3o2)[n+]2c(c1)-c1c(ccc3c1-c1cccc[n+]1CC3)CC2.O=S(=O)([O-])C(F)(F)F.O=S(=O)([O-])C(F)(F)F [HTA-C9-17, 2,4-bis((E)-2-(benzofuran-2-yl)vinyl)-6,7,10,11-tetrahydrodipyrido[2,1-a:1′,2′-k][2,9]phenanthroline-5,12-diium trifluoromethanesulfonate] | 26 to 50 |  | 44 | ≥ 51 | 
4 | Cc1c(/C=C/c2cc3ccccc3[n+]3c2-c2c(ccc4c2-c2cccc[n+]2CCC4)CCC3)sc2ccccc12.O=S(=O)([O-])C(F)(F)F.O=S(=O)([O-])C(F)(F)F [MSC-C10-36, 19-((E)-2-(3-methylbenzo[b]thiophen-2-yl)vinyl)-6,7,8,11,12,13-hexahydropyrido[1′″,2′″:1″,2″]azepino[4″,3″:5′,6′]benzo[1′,2′:3,4]azepino[1,2-a]quinoline-5,14-diium trifluoromethanesulfonate] | ≤ 10 |  | 85 | ≥ 51 | 
5 | Brc1ccc2c(/C=C/c3cc4ccccc4[n+]4c3-c3c(ccc5c3-c3cccc[n+]3CCC5)CCC4)c[nH]c2c1.O=S(=O)([O-])C(F)(F)F.O=S(=O)([O-])C(F)(F)F [MSC-C9-18, 19-((E)-2-(6-bromo-1H-indol-3-yl)vinyl)-6,7,8,11,12,13-hexahydropyrido[1′″,2′″:1″,2″]azepino[4″,3″:5′,6′]benzo[1′,2′:3,4]azepino[1,2-a]quinoline-5,14-diium trifluoromethanesulfonate] | 11 to 25 |  | 31 | ≥ 51 | 
